Patent US11541037B2, “Alkaloids from sponge, scaffolds for the inhibition of human immunodeficiency virus (HIV)” (King Abdullah University of Science and Technology, priority 2014, dated 2023)
≈ marks a conversion by molar mass, not a printed value. Entries after “also recorded” stand apart in the source; their conditions may differ. Read-outs that look alike come from different tables or passages of the source.

Assays:
LC5-RIC cells = experiment: MTT cell proliferation (vitality) assay of infected LC5-RIC cells; type: cell-based; settings: for concentrations at which cytotoxicity was observed / cytotoxicity (in words): LC5-RIC cells; for cytotoxicity (in words): tested concentrations 3.1-50 μM
Description: The colorimetric assay […] was used in order to assess the viability and activity of LC5-RIC cells exposed to the unknown sponge mixtures, SPE fraction 1 and HPLC fractions 1-11, for three biological replicates. This cell vitality assay provides a visualization of the process where mitochondrial enzymes reduce the yellow MTT to purple formazan (ATCC, MTT cell proliferation assay). After reading the HIV reporter expression, cultures were incubated with 100 μl of MTT solution (0.5 mg of […]; Sigma, Taufkirchen, Germany) in 100 μl of culture medium for 2 hours. MTT solution was removed and 100 μl of lysis solution (10% [wt/vol] SDS and 0.6% [vol/vol] acetic acid in dimethyl sulfoxide [DMSO]) was added. The formazan concentrations of the test compounds and the uninfected control cultures were determined by an ELISA plate reader (Tecan Infinite M200, Tecan Germany GmbH, Crailsheim) and scanned with a test wavelength of 570 nm and a reference wavelength of 630 nm.

[1] = target: T1, HIV-1 reverse transcriptase (Human immunodeficiency virus type 1 group M subtype B, UniProt P04585); experiment: HIV-1 reverse transcriptase biochemical assay (EnzChek); settings: for anti-HIV-1 RT activity (in words): screened at 3.1-100 μM
T1 construct: The reverse transcriptase is a heterodimer with the p66 and the p51 subunits; purchased Calbiochem, Merck-Millipore
Description: The HIV-1 reverse transcriptase inhibition assay was carried out using the commercial kit EnzChek® Reverse Transcriptase Assay (Invitrogen, San Jose, Calif., USA). The reverse transcriptase is a heterodimer with the p66 and the p51 subunits with RNase H activity located in the last 15 KDa of the p66 HIV Reverse transcriptase (Calbiochem, Merck-Millipore). Polymerase activity was assessed by its ability to produce RNA-DNA heteroduplexes from a mixture of a long poly (A) template, an oligo dT primer and dTTP which is then detected by PicoGreen® dsDNA quantitation reagent. The single compound and controls were performed in triplicated in a 384-well plate format, each with a total reaction mixture of 50 μL. To begin, the poly (A) template was annealed to the oligo dT primer for one hour, then diluted 200 fold in polymerization buffer. Reverse transcriptase (1.2 μl) was added per 300 reactions. This mixture was kept on ice and aliquoted to each well with test compounds. The reaction was incubated at room temperature for one hour and then 2 μl of […] EDTA was added to stop the reaction. The RNA-DNA heteroduplex was labeled with PicoGreen and incubated for 5 minutes and then detected with the use of a SpectraMax® Paradigm® Multi-mode Microplate Detection Platform (Molecular Devices, Sunnyvale, Calif., USA) by scanning at 480 nm excitation wavelength and 520 nm emission wavelength. […] Statistical significances were determined using a one-way ANOVA.

HIV-1 [2] = test system: HIV-1
Description: (§1) The EASY-HIT assay (Kremb et al. [11]) is based on HIV-1 susceptible reporter cells (LC5-RIC) that contain a stably integrated fluorescent reporter gene that is activated upon successful HIV-1 infection and expression of the early viral proteins Rev and Tat. LC5-RIC were seeded into 96-well plates (μCLEAR-Plate Black; Greiner Bio-One, Kremsmuenster, Germany) using only the 60 inner wells to avoid variations in the culture conditions in the outer wells. Cells were seeded ata density of 10,000 cells per well 24 hours prior to infection. SPE fractions for the biological replicates C26, C14 and D5, were tested in a serial 1:2-dilution with a maximum of 3% methanol or approximately 75 μg/ml for the S. carteri fraction 1 mixture on the EASY-HIT assay [11]. For the HPLC fractions, SPE fraction 1 HPLC fractions 1-11, were tested on the EASY-HIT assay for biological replicates C26, C14 and D5. The authentic samples of HD, DBH, and oroidin were screened at 3.1 μM, 6.25 μM, 12.5 μM, 25 μM, and 50 μM. All samples were tested in triplicates. After compound addition, LC5-RIC cells were infected by adding 20 μl of HIV-1 inoculum (approx. 28.8 ng of p24 for HIV-1LAI derived from HEK 293T cells) to each well of the plate. Cells were incubated at standard cell culture conditions for 48 hours after infection and were subsequently assayed for reporter expression and cell viability.
(§2) Reporter expression was determined by measuring the total fluorescent signal intensity of each culture with a fluorescence microplate reader (Fluoroskan Ascent; ThermoFisher, Schwerte, Germany) at an excitation filter wavelength of 544 nm and an emission filter wavelength of 590 nm or with a Tecan infinite M200 (Tecan, Crailsheim, Germany) at the monochromator wavelengths 552 nm for excitation and 596 for emission. Statistical significances were determined using one-way ANOVA.

[3] = vendor data, Enzo Life Sciences, cited from earlier work
HIV-1 [4] = experiment: microbe, parasite or virus in culture; settings: Human immunodeficiency virus 1, read-out: concentration giving 50% inhibition of HIV-1 (viral replication)
Description: as §1, §2

HIV = settings: concentrations not detailed; cited from earlier work

With `NC1=NC(=O)/C(=C2\CCNC(=O)c3[nH]ccc32)N1` [DBH, 4-(2-Amino-4-oxo-2-imidazolin-5-ylidene)-4,5,6,7-tetrahydropyrrolo[2,3-c]azepin-8-one] the “effect on cell vitality” value (LC5-RIC cells; 13 μM) was “without affecting cell vitality”, the “concentrations at which cytotoxicity was observed” value (LC5-RIC cells) was “greater than 13 μM” and the “cytotoxicity (in words)” value (LC5-RIC cells) was “exhibited cytotoxicity”. The “anti-HIV-1 RT activity (in words)” value [1] was “did not show anti-HIV-1 RT activity; also recorded: do not affect this enzyme”, the “HIV-1 infection, % of untreated controls” value (HIV-1 [2]; 13 μM) was 30% and the “solubility (in words)” value [3] was “Soluble in 100% ethanol or DMSO”. It also gave an IC50 (HIV-1 [4]) of 7 µM.
For `NC1=NC(=O)/C(=C2\CCNC(=O)c3[nH]c(Br)cc32)N1` [HD, 10Z-Hymenialdisine], the “effect on cell vitality” value (LC5-RIC cells; 3.1 μM) was “without affecting cell vitality”, the “concentrations at which cytotoxicity was observed” value (LC5-RIC cells) was “greater than 3.1 μM” and the “cytotoxicity (in words)” value (LC5-RIC cells) was “exhibited cytotoxicity”. For the same molecule, the “anti-HIV-1 RT activity (in words)” value [1] was “did not show anti-HIV-1 RT activity; also recorded: do not affect this enzyme”, the “HIV infection, % of untreated controls” value (HIV-1 [2]; 3.1 μM) was under 40% and the “inhibition of HIV-1 replication (in words)” value (from here on “inhibition … (in words)”) (HIV-1 [2]; EASY-HIT, LC5-RIC cells) was “capable of inhibiting HIV-1 replication”. The “solubility in DMSO” value ([3]; DMSO) was 5000 µg/mL (≈ 15.4 mM) and the IC50 (HIV-1 [4]) was 13 µM.
With `Nc1ncc(/C=C/CNC(=O)c2cc(Br)c(Br)[nH]2)[nH]1` [oroidin] the “cytotoxicity (in words)” value (LC5-RIC cells) was “non-cytotoxic at all tested concentrations; also recorded: without causing cytotoxicity; also recorded: no associated toxicity”, the “cytotoxicity (in words)” value (LC5-RIC cells; listed as Oroidin) was “nontoxic for cells at all tested concentrations” and the “inhibition of HIV-1 reverse transcriptase activity” value ([1]; 25 μM) was “up to 90%”. For the same molecule, the “inhibition of the HIV-1 RT enzyme” value ([1]; concentrations greater than 25 μM) was 90%, the “anti-HIV-1 RT activity (in words)” value [1] was “directly acting to inhibit the retroviral reverse transcriptase” and the “HIV-1 infection, % of untreated controls” value (HIV-1 [2]; 50 μM) was 50%. For the same molecule, the “reduction of HIV-1 replication” value (HIV-1 [2]; 50 μM) was “up to 50%”, the “inhibition … (in words)” value (HIV-1 [2]; EASY-HIT, LC5-RIC cells) was “capable of inhibiting HIV-1 replication” and the “inhibition … (in words)” value (HIV-1 [2]; EASY-HIT, LC5-RIC cells, listed as Oroidin) was “weakest antiviral activity”. The IC50 (HIV-1 [2]; read-out: concentration giving 50% inhibition of HIV-1 (viral replication), EASY-HIT, LC5-RIC cells, purchased pure compounds) was 50 µM and the “ability to inhibit HIV replication, previous study” value (HIV) was “inactive”.
